Experimental data as given in US10562850B2, “Human plasma kallikrein inhibitors” (priority 2015, dated 2020).

Target: human plasma kallikrein (Homo sapiens (Human), UniProt P03952)
Assay: Plasma Kallikrein Activity Assay (chromogenic substrate S2302)
Assay type: biochemical
Conditions: 2 nM kallikrein, 80 μM S2302, 30° C., pH 7.8; Cheng-Prusoff
Outline: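 2 nM human plasma kallikrein incubated at 30° C with 80 μM S2302 and increasing compound concentrations in 50 mM Tris-HCl pH 7.8, 200 mM NaCl, 2.5 mM CaCl2. Activity read as absorbance change at 405 nm; four-parameter logistic fit, Ki by Cheng-Prusoff.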

human plasma kallikrein, sequence (P03952 391-638): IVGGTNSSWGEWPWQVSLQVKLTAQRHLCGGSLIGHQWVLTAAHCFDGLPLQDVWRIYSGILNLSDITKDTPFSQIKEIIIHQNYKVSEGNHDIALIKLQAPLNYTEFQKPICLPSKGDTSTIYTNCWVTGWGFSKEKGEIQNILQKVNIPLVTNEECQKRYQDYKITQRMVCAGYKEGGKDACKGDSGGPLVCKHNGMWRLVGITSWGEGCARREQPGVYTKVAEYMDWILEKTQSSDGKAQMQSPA
human plasma kallikrein, sequence (P03952 20-390 partner): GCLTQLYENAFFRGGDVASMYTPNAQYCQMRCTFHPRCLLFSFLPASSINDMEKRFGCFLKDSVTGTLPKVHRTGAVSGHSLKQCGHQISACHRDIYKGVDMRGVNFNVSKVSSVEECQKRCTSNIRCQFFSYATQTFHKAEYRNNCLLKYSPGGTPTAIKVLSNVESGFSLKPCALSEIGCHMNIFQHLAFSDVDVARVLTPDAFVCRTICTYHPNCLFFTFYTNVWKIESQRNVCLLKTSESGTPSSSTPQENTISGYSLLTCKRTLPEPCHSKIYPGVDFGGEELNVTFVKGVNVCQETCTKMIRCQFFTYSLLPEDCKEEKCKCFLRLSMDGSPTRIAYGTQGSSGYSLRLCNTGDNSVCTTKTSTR

CO[C@]1(c2ccccc2)C[C@H](C(=O)Nc2cc(C(N)(CCC3CC3)c3ccccn3)ccc2F)N(C(=O)Nc2ccc(Cl)cc2)C1 (stereo partly drawn) [Compound 34d, (2R,4S)-N2-(5-((+)-1-amino-3-cyclopropyl-1-(pyridin-2-yl)propyl)-2-fluorophenyl)-N1-(4-chlorophenyl)-4-methoxy-4-phenylpyrrolidine-1,2-dicarboxamide]
Ki: < 50 nM

CO[C@@H]1C[C@H](C(=O)Nc2cc(C(N)(CCC3CC3)c3cccc(C#N)c3)ccc2F)N(C(=O)Nc2ccc(Cl)cc2)C1 (stereo partly drawn) [Compound 17b, (2R,4R)-N2-(5-((+)-1-amino-1-(3-cyanophenyl)-3-cyclopropylpropyl)-2-fluorophenyl)-4-methoxy-N1-(4-chlorophenyl)pyrrolidine-1,2-dicarboxamide]
Ki: 50 to 100 nM

O=C(Nc1ccccc1F)[C@H]1C[C@@H](O)CN1C(=O)Nc1ccc(Cl)cc1 [Compound 2a, (2R,4R)-N1-(4-chlorophenyl)-N2-(2-fluorophenyl)-4-hydroxypyrrolidine-1,2-dicarboxamide]
Ki: > 100 nM

N#Cc1cccc(C(N)(CCC2CC2)c2ccc(F)c(NC(=O)[C@H]3C[C@](O)(c4ccccc4)CN3C(=O)Nc3ccc(Cl)cc3)c2)c1 (stereo partly drawn) [Compound 30a, (2R,4S)-N2-(5-((+)-1-amino-1-(3-cyanophenyl)-3-cyclopropylpropyl)-2-fluorophenyl)-N1-(4-chlorophenyl)-4-hydroxy-4-phenylpyrrolidine-1,2-dicarboxamide]
Ki: < 50 nM

CO[C@@H]1C[C@H](C(=O)Nc2cc(C(CCC3CC3)(NS(C)(=O)=O)c3ccncc3)ccc2F)N(C(=O)Nc2ccc(Cl)cn2)C1 (stereo partly drawn) [Compound 74a, (2R,4R)-N1-(5-chloropyridin-2-yl)-N2-(5-((+)-3-cyclopropyl-1-(methylsulfonamido)-1-(pyridin-4-yl)propyl)-2-fluorophenyl)-4-methoxypyrrolidine-1,2-dicarboxamide]
Ki: < 50 nM

O=C(Nc1cc(C(NCC2CC2)c2ccccc2)ccc1F)[C@H]1C[C@@H](O)CN1C(=O)Nc1ccc(Cl)cc1 (stereo partly drawn) [Compound 3a, (2R,4R)-N1-(4-chlorophenyl)-N2-(5-((+)-(cyclopropylmethylamino)(phenyl)methyl)-2-fluorophenyl)-4-hydroxypyrrolidine-1,2-dicarboxamide]
Ki: 50 to 100 nM

NC(CCC1CC1)(c1ccncc1)c1ccc(F)c(NC(=O)[C@H]2C[C@@H](O)CN2C(=O)Nc2ccc(Cl)cn2)c1 (stereo partly drawn) [Compound 72c, (2R,4R)-N2-(5-((+)-1-amino-3-cyclopropyl-1-(pyridin-4-yl)propyl)-2-fluorophenyl)-N1-(5-chloropyridin-2-yl)-4-hydroxypyrrolidine-1,2-dicarboxamide]
Ki: < 50 nM

CO[C@@H]1C[C@H](C(=O)Nc2cc(C(N)(CCC3CC3)c3ccncc3)ccc2F)N(C(=O)Cc2ccc(Cl)cc2)C1 (stereo partly drawn) [Compound 76e, (2R,4R)-N-(5-((+)-1-amino-3-cyclopropyl-1-(pyridin-4-yl)propyl)-2-fluorophenyl)-1-(2-(4-chlorophenyl)acetyl)-4-methoxypyrrolidine-2-carboxamide]
Ki: > 100 nM

NC(CCC1CC1)(c1ccncc1)c1ccc(F)c(NC(=O)[C@H]2C[C@H](c3ccccc3)CN2C(=O)Nc2ccc(Cl)cn2)c1 (stereo partly drawn) [Compound 47d, (2R,4R)-N2-(5-((+)-1-amino-3-cyclopropyl-1-(pyridin-4-yl)propyl)-2-fluorophenyl)-N1-(5-chloropyridin-2-yl)-4-phenylpyrrolidine-1,2-dicarboxamide]
Ki: 50 to 100 nM

CO[C@@H]1C[C@H](C(=O)Nc2cc(C(CCC3CC3)(N[S@+]([O-])C(C)(C)C)c3cccc(C#N)c3)ccc2F)N(C(=O)N(C)c2ccc(Cl)cc2)C1 (stereo partly drawn) [Compound 6c, (2R,4R)-N1-(4-chlorophenyl)-N2-(5-((−)-1-(3-cyanophenyl)-3-cyclopropyl-1-((R)-1,1-dimethylethylsulfinamido)propyl)-2-fluorophenyl)-4-methoxy-N1-methylpyrrolidine-1,2-dicarboxamide]
Ki: > 100 nM

CO[C@@H]1C[C@H](C(=O)Nc2cc(C(N)(CCC3CC3)c3ccccn3)ccc2F)N(C(=O)Nc2ccc(Cl)cn2)C1 (stereo partly drawn) [Compound 36d, (2R,4R)-N2-(5-((+)-1-amino-3-cyclopropyl-1-(pyridin-2-yl)propyl)-2-fluorophenyl)-N1-(5-chloropyridin-2-yl)-4-methoxypyrrolidine-1,2-dicarboxamide]
Ki: > 100 nM

O=C(Nc1cc(C(NCC2CC2)c2ccccc2)ccc1F)[C@H]1C[C@@H](O)CN1C(=O)Nc1ccc(Cl)cc1 (stereo partly drawn) [Compound 1p, (2R,4R)-N1-(4-chlorophenyl)-N2-(5-(((cyclopropylmethyl)amino)(phenyl)methyl)-2-fluorophenyl)-4-hydroxypyrrolidine-1,2-dicarboxamide]
Ki: > 100 nM

CCO[C@@H]1C[C@H](C(=O)Nc2cc(C(CCC3CC3)(NS(C)(=O)=O)c3ccncc3)ccc2F)N(C(=O)Nc2ccc(Cl)cn2)C1 (stereo partly drawn) [Compound 55a, (2R,4R)-N1-(5-chloropyridin-2-yl)-N2-(5-((+)-3-cyclopropyl-1-(methylsulfonamido)-1-(pyridin-4-yl)propyl)-2-fluorophenyl)-4-ethoxypyrrolidine-1,2-dicarboxamide]
Ki: < 50 nM

CCNC(CCC1CC1)(c1ccccc1)c1ccc(F)c(NC(=O)[C@H]2C[C@@H](OC)CN2C(=O)Nc2ccc(Cl)cn2)c1 (stereo partly drawn) [Compound 67b, (2R,4R)-N1-(5-chloropyridin-2-yl)-N2-(5-((+)-3-cyclopropyl-1-(ethylamino)-1-phenylpropyl)-2-fluorophenyl)-4-methoxypyrrolidine-1,2-dicarboxamide]
Ki: > 100 nM

CO[C@@H]1C[C@H](C(=O)Nc2cc(C(CCC3CC3)(NC(C)=O)c3ccncc3)ccc2F)N(C(=O)Nc2ccc(Cl)cn2)C1 (stereo partly drawn) [Compound 73a, (2R,4R)-N2-(5-((+)-1-acetamido-3-cyclopropyl-1-(pyridin-4-yl)propyl)-2-fluorophenyl)-N1-(5-chloropyridin-2-yl)-4-methoxypyrrolidine-1,2-dicarboxamide]
Ki: < 50 nM

CCCO[C@@H]1C[C@H](C(=O)Nc2cc(C(N)(CCC3CC3)c3ccncc3)ccc2F)N(C(=O)Nc2ccc(Cl)cn2)C1 (stereo partly drawn) [Compound 52d, (2R,4R)-N2-(5-((+)-1-amino-3-cyclopropyl-1-(pyridin-4-yl)propyl)-2-fluorophenyl)-N1-(5-chloropyridin-2-yl)-4-propoxypyrrolidine-1,2-dicarboxamide]
Ki: < 50 nM

CO[C@@H]1C[C@H](C(=O)Nc2cc(C(N)(CCC3CC3)c3ccncc3)ccc2F)N(C(=O)c2cccc(C#N)c2)C1 (stereo partly drawn) [Compound 86a, (2R,4R)-N-(5-((+)-1-amino-3-cyclopropyl-1-(pyridin-4-yl)propyl)-2-fluorophenyl)-1-(3-cyanobenzoyl)-4-methoxypyrrolidine-2-carboxamide]
Ki: > 100 nM

CO[C@@H]1C[C@H](C(=O)Nc2cc(C(CCC3CC3)(N[S@+]([O-])C(C)(C)C)c3ccccc3)ccc2F)N(C(=O)Nc2ccc(Cl)cn2)C1 (stereo partly drawn) [Compound 66c, (2R,4R)-N1-(5-chloropyridin-2-yl)-N2-(5-((+)-3-cyclopropyl-1-((R)-1,1-dimethylethylsulfinamido)-1-phenylpropyl)-2-fluorophenyl)-4-methoxypyrrolidine-1,2-dicarboxamide]
Ki: > 100 nM

CO[C@@H]1C[C@H](C(=O)Nc2cc(C(N)(CCC3CC3)c3ccncc3)ccc2F)N(C(=O)c2ccc(F)c(N)c2)C1 (stereo partly drawn) [Compound 85a, (2R,4R)-N-(5-((+)-1-amino-3-cyclopropyl-1-(pyridin-4-yl)propyl)-2-fluorophenyl)-1-(3-amino-4-fluorobenzoyl)-4-methoxypyrrolidine-2-carboxamide]
Ki: > 100 nM
